This passage reports IC50 results from BindingDB's records for doi:10.1021/jm960837y (Boehringer Ingelheim Pharmaceuticals, 1997).

In assay [1] the target is T1, Gag-Pol polyprotein [600-1027,Y787L]/[600-1155,Y787L] (Human immunodeficiency virus 1, UniProt P03366, Y787L).
T1 construct: 600-1027; 600-1155
As to the kind of experiment: HIV-1 RT Assay. Conditions: pH 7.8; 22 °C. The text has this: (§1) The IC50 of reverse transcriptase is the concentration that inhibits 50% of recombinant HIV-1 RT RNA-directed DNA polymerase activity in vitro.

Assay [2] has as its target T2, Gag-Pol polyprotein [600-1027,P835L]/[600-1155,P835L] (Human immunodeficiency virus 1, UniProt P03366, P835L).
T2 construct: 600-1027; 600-1155
As to the kind of experiment: HIV-1 RT Assay.
Description: as §1

In general, IC50 refers to the point on the concentration scale where inhibition reaches its midpoint. Low values mean higher potency, high ones lower potency. For `CCN1c2ncccc2C(=O)N(C)c2ccc(-c3cc[nH]c3)nc21` [2-ethyl-9-methyl-5-(1H-pyrrol-3-yl)-2,4,9,15-tetraazatricyclo[9.4.0.0^{3,8}]pentadeca-1(11),3(8),4,6,12,14-hexaen-10-one], the IC50 in assay [1] is 0.1 µM; in assay [2] it was 0.13 µM.

In the case of `CCN1c2ncccc2C(=O)N(C)c2ccc(-c3c[nH]c4cnccc34)nc21` [2-ethyl-9-methyl-5-{1H-pyrrolo[2,3-c]pyridin-3-yl}-2,4,9,15-tetraazatricyclo[9.4.0.0^{3,8}]pentadeca-1(11),3(8),4,6,12,14-hexaen-10-one], the IC50 in assay [2] is < 0.001 µM.
